According to US10173990B2, “URAT1 inhibitor” (Nippon Chemiphar Co., Ltd., priority 2014, dated 2019):

Biological target: URAT1 (Homo sapiens (Human), UniProt Q96S37)
Assay: Uptake of [14C] uric acid using HEK-URAT1
Format: cell-based
Conditions: for remaining activity at 10 µM: 2 min, [14C] uric acid uptake into URAT1 stably expressed HEK293 cells, 10 μM test compound, 5 μM uric acid, 2 minutes, 37° C., uptake without test compound = 100%, read-out: % control (10 μM); for IC50: inhibition of [14C] uric acid uptake into URAT1 stably expressed HEK293 cells
Protocol: More specifically, the test is performed by culturing URAT1 stably expressed HEK293 cells (HEK-URAT1) or HEK293 cells transfected with empty vector (HEK-mock) in a DMEM culture medium in an incubator. Subsequently, 1×10^5 cells are respectively seeded in 24-well culture plate coated with poly D-lysine and the uptake test is started after the culturing.
The cells are washed with a solution for a test warmed to 37° C. and equilibrated. After a buffer solution is removed from the cells, 0.5 mL of an uptake solution containing 5 μM [^14C] uric acid with or without a test compound is respectively added and the cells are incubated. The cell uptake is stopped by adding a Hanks buffer solution and the cells are washed. The cells are lysed with 0.1 N sodium hydroxide and the radioactivity is measured using LSC6100 (Aloka Co., Ltd. Tokyo). Each uptake into HEK-URAT1 is acquired by subtracting uptake into HEK-mock cells from the value of HEK-URAT1, converting the result to per mg protein of cells, and setting the values from the uptake without the test compound as 100%.
URAT1 stably expressed HEK293 cells (HEK-URAT1) or HEK293 cells transfected with empty vector (HEK-mock) were cultured in DMEM culture medium supplemented with 10% fetal bovine serum in an incubator under conditions of 5% carbon dioxide at 37° C. Subsequently, 1×10^5 cells were respectively seeded in 24-well culture plate coated with poly D-lysine and the uptake test was started after the culturing for 3 days.
The uptake experiment of uric acid was performed at 37° C. […] After a buffer solution was removed from the cells, 0.5 mL of an uptake solution containing 5 μM [^14C] uric acid with or without a test compound was respectively added and the cells were incubated for 2 minutes. The cell uptake was stopped by adding an ice-cold Hanks buffer solution without chloride ions and the cells were washed 3 times. The cells were lysed with 0.1 N sodium hydroxide and the radioactivity was measured using LSC6100 (Aloka Co., Ltd. Tokyo). Each uptake into HEK-URAT1 was acquired by subtracting uptake into HEK-mock cells from the value of HEK-URAT1, converting the result to per mg protein of cells, and setting the value from uptake without the test compound as 100%. The uptake in each condition was performed in triplicate and each value was represented by average±standard deviation.
The URAT1 inhibitory action was measured according to the same method as in Example 118.

URAT1, sequence (Q96S37 whole entry): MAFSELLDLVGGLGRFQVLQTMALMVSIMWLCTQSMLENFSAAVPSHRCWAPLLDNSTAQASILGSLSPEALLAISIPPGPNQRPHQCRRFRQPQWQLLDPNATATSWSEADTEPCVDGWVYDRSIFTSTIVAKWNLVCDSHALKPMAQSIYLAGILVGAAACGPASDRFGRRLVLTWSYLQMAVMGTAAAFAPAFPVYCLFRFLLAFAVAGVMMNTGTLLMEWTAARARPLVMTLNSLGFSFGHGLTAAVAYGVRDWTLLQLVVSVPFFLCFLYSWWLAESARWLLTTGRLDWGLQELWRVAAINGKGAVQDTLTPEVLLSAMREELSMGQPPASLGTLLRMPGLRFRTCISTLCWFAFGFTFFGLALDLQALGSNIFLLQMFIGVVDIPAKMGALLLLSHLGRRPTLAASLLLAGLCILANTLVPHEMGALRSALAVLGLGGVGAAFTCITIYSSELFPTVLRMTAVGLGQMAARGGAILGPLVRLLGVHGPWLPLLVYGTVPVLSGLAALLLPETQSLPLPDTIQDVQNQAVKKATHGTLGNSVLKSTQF

SMILES	remaining activity at 10 µM	IC50
C/C(=C\C(=O)O)Sc1ccc2ccccc2c1-c1ccc(C#N)cc1 [Example 116, (E)-3-[[1-(4-cyanophenyl)naphthalen-2-yl]thio]-2-butenoic acid]	1.3%	0.025 µM
CC(C)(Sc1ccc2nc(C(F)(F)F)sc2c1-c1ccc(C#N)cc1)C(=O)O [Example 60, 2-[[7-(4-Cyanophenyl)-2-(trifluoromethyl)benzo[d]thiazol-6-yl]thio]-2-methylpropanoic acid]	69.2%	–
CC(C)(Oc1ccc2ncoc2c1-c1ccc(C#N)cc1)C(=O)O [Example 17, 2-[[7-(4-Cyanophenyl)benzo[d]oxazol-6-yl]oxy]-2-methylpropanoic acid]	59.3%	–
CC(C)(C)C(Sc1ccc2cnsc2c1-c1ccc(C#N)cc1)C(=O)O (centres unmarked) [Example 114, 2-[[7-(4-Cyanophenyl)benzo[d]isothiazol-6-yl]thio]-3,3-dimethylbutanoic acid]	5.8%	0.474 µM
CC(C)(Sc1ccc2cnsc2c1-c1ccc(OC(F)(F)F)cc1)C(=O)O [Example 80, 2-Methyl-2-[[7-[4-(trifluoromethoxy)phenyl]benzo[d]isothiazol-6-yl]thio]propanoic acid]	29.2%	–
Cc1ccc(-c2c(SC(C)(C)C(=O)O)ccc3cnsc23)cc1 [Example 74, 2-Methyl-2-[[7-(p-tolyl)benzo[d]isothiazol-6-yl]thio]propanoic acid]	6.8%	–
Cc1nsc2c(-c3ccc(C#N)cc3)c(SC3(C(=O)O)CCC3)ccc12 [Example 112, 1-[[7-(4-Cyanophenyl)-3-methylbenzo[d]isothiazol-6-yl]thio]cyclobutan-1-carb oxylic acid]	13.8%	2.43 µM
CC(C)c1ccc(-c2c(SC(C)(C)C(=O)O)ccc3cnsc23)cc1 [Example 76, 2-[[7-(4-Isopropylphenyl)benzo[d]isothiazol-6-yl]thio]-2-methylpropanoic acid]	12.7%	–
CC(C)(Oc1ccc2ccccc2c1-c1cccnc1)C(=O)O [Example 8, 2-Methyl-2-[[1-(pyridin-3-yl)naphthalen-2-yl]oxy]propanoic acid]	61.3%	–
Cc1cc(-c2c(SC(C)(C)C(=O)O)ccc3cnsc23)ccc1C#N [Example 88, 2-[[7-(4-Cyano-3-methylphenyl)benzo[d]isothiazol-6-yl]thio]-2-methylpropanoic acid]	3.8%	–
CC(C)(Sc1ccc2ncsc2c1-c1ccc(C#N)cc1)C(=O)O [Example 24, 2-[[7-(4-Cyanophenyl)benzo[d]thiazol-6-yl]thio]-2-methylpropanoic acid]	7.4%	0.17 µM
N#Cc1ccc(-c2c(O/C=C/C(=O)O)ccc3ncsc23)cc1 [Example 21, (E)-3-[[7-(4-cyanophenyl)benzo[d]thiazol-6-yl]oxy]acrylic acid]	48.7%	–
N#Cc1ccc(-c2c(SC3(C(=O)O)CCCCC3)ccc3cnsc23)cc1 [Example 117, 1-[[7-(4-Cyanophenyl)benzo[d]isothazol-6-yl]thio]cyclohexan-1-carboxylic acid]	2.7%	0.296 µM
N#Cc1ccc(-c2c(O/C=C/C(=O)O)ccc3ccccc23)cc1 [Example 6, (E)-3-[[1-(4-Cyanophenyl)naphthalen-2-yl]oxy]acrylic acid]	5.4%	–
CC(C)C(Sc1ccc2cnsc2c1-c1ccc(C#N)cc1)C(=O)O (centres unmarked) [Example 70, 2-[[7-(4-Cyanophenyl)benzo[d]isothiazol-6-yl]thio]-3-methylbutanoic acid]	6.4%	–
Cc1cc(C#N)ccc1-c1c(SC(C)(C)C(=O)O)ccc2cnsc12 [Example 86, 2-[[7-(4-Cyano-2-methylphenyl)benzo[d]isothiazol-6-yl]thio]-2-methylpropanoic acid]	12.1%	–
CC(C)(Sc1ccc2cnsc2c1-c1ccc(C#N)c(F)c1)C(=O)O [Example 90, 2-[[7-(4-Cyano-3-fluorophenyl)benzo[d]isothiazol-6-yl]thio]-2-methylpropanoic acid]	3.6%	0.161 µM
